ChEMBL document CHEMBL1201862, “PubChem BioAssay data set” (2004)
Calls of active or inactive are those of the source.

How the values were obtained:
[1] = target: Sphingosine 1-phosphate receptor 2 (Homo sapiens, UniProt O95136); assay: Dose Response Cell-Based Assay for Agonists of the Sphingosine 1-Phosphate Receptor 2 (S1P2): Purchased Analogues. [Related pubchem assays: 1192, 373, 439 ]; format: functional
[2] = target: T1, Sphingosine 1-phosphate receptor 1 (Homo sapiens, UniProt P21453); assay: Dose Response Cell-Based Assay for Agonists of the Sphingosine 1-Phosphate Receptor 1 (S1P1): Purchased Analogues. [Related pubchem assays: 1192, 373, 439 ]; format: functional
[3] = target: Sphingosine 1-phosphate receptor 3 (Homo sapiens, UniProt Q99500); assay: Dose Response Cell-Based Assay for Agonists of the Sphingosine 1-Phosphate Receptor 3 (S1P3): Purchased Analogues. [Related pubchem assays: 373, 439 ]; format: functional
[4] = target: Epstein-Barr nuclear antigen 1 (Epstein-Barr virus (strain B95-8) (HHV-4) (Human herpesvirus 4), UniProt P03211); assay: EBNA-1 inhibitors, dose response, biochemical, fluorescence polarization, 1536-well (AID 2381); parameters: species or system human gammaherpesvirus 4;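 note: fluorescence polarization of a Cy5 DNA probe bound by EBNA-1 protein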
[5] = target: Lytic switch protein BZLF1 (Epstein-Barr virus (strain B95-8) (HHV-4) (Human herpesvirus 4), UniProt P03206); assay: EBV ZTA inhibitors, dose response, counter-screen for EBNA-1 inhibitor project, biochemical, fluorescence polarization, Epstein-Barr virus, 1536-well (AID 2377); parameters: species or system human gammaherpesvirus 4;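 note: fluorescence polarization of Cy5-labelled ZRE DNA probe bound by purified Zta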
HEK293 [6] = assay: NOD1 signaling inhibitors, primary screen, cell-based, luminescence, uHTS (AID 1578); format: functional; conditions: Homo sapiens
HeLa = assay: Cytotoxicity counterscreen assay for transcriptional activators of heat shock protein 70 (Hsp70). [Related pubchem assays: 1203, 1252 ]; format: functional; conditions: Homo sapiens;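 note: cells exposed to compound for 16 hours before readout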
HEK293 [7] = assay: cells; format: functional, cell-based; conditions: Homo sapiens
HEK293 [8] = assay: cells; format: functional, cell-based; conditions: Homo sapiens; remark: listed apart in the source
HEK293 [9] = assay: NOD2 signaling inhibitors in MDP-stimulated cells, cell-based, uHTS, luminescence (AID 2001); format: functional; conditions: Homo sapiens
[10] = inhibitors of intracellular T. cruzi replication, confirmation, NIH3T3 host cells, beta-gal luminescence (AID 2044); format: functional, cell-based;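 note: intracellular parasites grown in NIH/3T3 mouse fibroblasts as host cells; luminescent beta-galactosidase reporter signal from transgenic T. cruzi replicating inside host cells; inhibitors lower the luminescence signal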
[11] = cytotoxicity toward NIH3T3 fibroblasts, dose response, counter-screen, cell-based, ATP luminescence, mouse fibroblasts (AID 2010); format: functional;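 note: cells exposed to compound for about 90 hours before reading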
[12] = target: T2, Sphingosine 1-phosphate receptor 4 (Homo sapiens, UniProt O95977); assay: Fluorescence dose response cell-based high throughput screening assay for antagonists of the Sphingosine 1-Phosphate Receptor 4 (S1P4). [Related pubchem assays: 1524 (Confirmation in triplicates.), 1510 (Primary screen.)]; format: functional
T2 sequence (O95977 whole entry): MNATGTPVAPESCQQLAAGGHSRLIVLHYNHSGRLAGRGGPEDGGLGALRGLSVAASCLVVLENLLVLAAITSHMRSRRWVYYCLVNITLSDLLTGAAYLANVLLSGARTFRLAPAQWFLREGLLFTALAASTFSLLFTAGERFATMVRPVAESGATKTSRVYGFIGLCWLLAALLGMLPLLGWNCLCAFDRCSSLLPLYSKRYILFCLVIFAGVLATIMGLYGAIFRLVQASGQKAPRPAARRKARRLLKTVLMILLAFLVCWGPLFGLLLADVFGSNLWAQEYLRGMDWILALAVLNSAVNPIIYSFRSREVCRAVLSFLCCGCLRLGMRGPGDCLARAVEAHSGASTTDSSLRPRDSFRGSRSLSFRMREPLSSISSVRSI

[13] = target: T1, Sphingosine 1-phosphate receptor 1; format: functional
[14] = target: G-protein coupled receptor 55 (Homo sapiens, UniProt Q9Y2T6); assay: GPR55 agonists via beta-arrestin recruitment, primary screen, imaging, U2OS cells, beta-arrestin-GFP redistribution (AID 1961); format: functional
[15] = target: Neurotensin receptor type 1 (Homo sapiens, UniProt P30989); format: functional;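 note: Image-based confirmatory dose-response assay measuring agonist activity at NTR1; NTR1-expressing U2OS osteosarcoma cells imaged for beta-arrestin GFP spot formation; agonist potency where compounds increase beta-arrestin recruitment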
Nonstructural protein 1 = Nonstructural protein 1 (Influenza A virus, UniProt Q194T2); format: functional, Influenza A virus (A/California/07/2009(H1N1))
X-box-binding protein 1 = X-box-binding protein 1 (Homo sapiens, UniProt P17861); format: functional, Cricetulus griseus;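 note: confirmatory dose-response counter-screen serving a CHOP assay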
Vero = assay: Vero E6 cell cytotoxicity, dose response, cytotoxicity control (AID 540298); format: functional; conditions: Chlorocebus sabaeus
MDCK [16] = assay: MDCK cell cytotoxicity, dose response, cytotoxicity control (AID 540296); format: functional; conditions: Canis lupus familiaris
MDCK [17] = assay: antiviral activity against H1N1 influenza, dose response, cell-based, strain KY136 (AID 540257); format: functional; conditions: Canis lupus familiaris
[18] = HeLa cell cytotoxicity, dose response, cytotoxicity control for MgcRacGAP inhibitor project (AID 624300); format: functional
[19] = target: T3, Rac GTPase-activating protein 1 (Homo sapiens, UniProt Q9H0H5); assay: MgcRacGAP GTPase-activating activity inhibitors, confirmation, biochemical, ADP Hunter fluorescence, primary and confirmatory (AID 624330); format: functional
T3 sequence (Q9H0H5 whole entry): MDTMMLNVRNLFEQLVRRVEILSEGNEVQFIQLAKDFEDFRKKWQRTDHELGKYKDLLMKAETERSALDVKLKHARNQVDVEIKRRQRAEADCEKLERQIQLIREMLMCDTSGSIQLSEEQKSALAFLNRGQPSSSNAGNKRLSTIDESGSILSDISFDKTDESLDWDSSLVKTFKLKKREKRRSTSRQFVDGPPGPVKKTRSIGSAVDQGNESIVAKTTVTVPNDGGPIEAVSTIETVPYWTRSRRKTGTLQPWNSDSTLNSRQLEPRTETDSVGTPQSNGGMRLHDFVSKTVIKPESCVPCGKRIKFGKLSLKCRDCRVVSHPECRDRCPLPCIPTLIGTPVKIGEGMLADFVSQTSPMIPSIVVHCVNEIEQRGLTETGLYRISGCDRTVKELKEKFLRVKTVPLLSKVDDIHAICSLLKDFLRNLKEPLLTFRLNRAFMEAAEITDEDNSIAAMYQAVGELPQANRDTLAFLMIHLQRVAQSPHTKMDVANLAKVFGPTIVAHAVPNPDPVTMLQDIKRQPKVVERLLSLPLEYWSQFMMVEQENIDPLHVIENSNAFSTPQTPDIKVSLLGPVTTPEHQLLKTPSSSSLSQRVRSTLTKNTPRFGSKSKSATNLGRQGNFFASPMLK

[20] = A High Throughput Confirmatory Assay used to Identify Novel Compounds that Inhibit Mycobacterium Tuberculosis in the absence of Glycerol.; format: functional
[21] = target: Neuropeptide Y receptor type 1 (Homo sapiens, UniProt P25929); format: functional;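 note: HEK293 cells with a CNG channel challenged with NPY then isoproterenol; potency as antagonist that reverses NPY suppression of cAMP signal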
[22] = target: Neuropeptide Y receptor type 2 (Homo sapiens, UniProt P49146); format: functional, cell-based;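 note: HEK293 cells expressing the receptor and a CNG channel; stimulus was NPY near EC95 followed by isoproterenol to raise cAMP; antagonist potency measured as restoring cAMP signal that NPY suppresses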
[23] = target: T4, Eukaryotic translation initiation factor 2-alpha kinase 3 (Homo sapiens, UniProt Q9NZJ5); assay: Dose response cell-based high-throughput screening assay to measure PERK inhibition. [Related pubchem assays: 1416 ]; format: functional
[24] = target: T4, Eukaryotic translation initiation factor 2-alpha kinase 3; assay: Counterscreen assay for PERK inhibitors: Dose response cell-based high throughput screening assay to measure inhibition of PERK at 6 hours. [Related pubchem assays: 1522, 1416 ]; format: functional

T1 sequence (P21453 whole entry): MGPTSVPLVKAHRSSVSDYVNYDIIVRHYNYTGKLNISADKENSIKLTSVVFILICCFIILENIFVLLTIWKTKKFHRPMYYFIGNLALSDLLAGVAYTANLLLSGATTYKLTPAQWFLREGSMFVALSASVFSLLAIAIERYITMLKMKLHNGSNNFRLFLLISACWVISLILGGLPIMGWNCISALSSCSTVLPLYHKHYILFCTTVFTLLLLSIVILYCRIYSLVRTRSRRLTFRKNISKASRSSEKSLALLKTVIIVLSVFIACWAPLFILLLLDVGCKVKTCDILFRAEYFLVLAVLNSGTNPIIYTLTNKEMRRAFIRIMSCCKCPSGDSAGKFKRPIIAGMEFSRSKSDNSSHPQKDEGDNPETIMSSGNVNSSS
T4 sequence (Q9NZJ5 whole entry): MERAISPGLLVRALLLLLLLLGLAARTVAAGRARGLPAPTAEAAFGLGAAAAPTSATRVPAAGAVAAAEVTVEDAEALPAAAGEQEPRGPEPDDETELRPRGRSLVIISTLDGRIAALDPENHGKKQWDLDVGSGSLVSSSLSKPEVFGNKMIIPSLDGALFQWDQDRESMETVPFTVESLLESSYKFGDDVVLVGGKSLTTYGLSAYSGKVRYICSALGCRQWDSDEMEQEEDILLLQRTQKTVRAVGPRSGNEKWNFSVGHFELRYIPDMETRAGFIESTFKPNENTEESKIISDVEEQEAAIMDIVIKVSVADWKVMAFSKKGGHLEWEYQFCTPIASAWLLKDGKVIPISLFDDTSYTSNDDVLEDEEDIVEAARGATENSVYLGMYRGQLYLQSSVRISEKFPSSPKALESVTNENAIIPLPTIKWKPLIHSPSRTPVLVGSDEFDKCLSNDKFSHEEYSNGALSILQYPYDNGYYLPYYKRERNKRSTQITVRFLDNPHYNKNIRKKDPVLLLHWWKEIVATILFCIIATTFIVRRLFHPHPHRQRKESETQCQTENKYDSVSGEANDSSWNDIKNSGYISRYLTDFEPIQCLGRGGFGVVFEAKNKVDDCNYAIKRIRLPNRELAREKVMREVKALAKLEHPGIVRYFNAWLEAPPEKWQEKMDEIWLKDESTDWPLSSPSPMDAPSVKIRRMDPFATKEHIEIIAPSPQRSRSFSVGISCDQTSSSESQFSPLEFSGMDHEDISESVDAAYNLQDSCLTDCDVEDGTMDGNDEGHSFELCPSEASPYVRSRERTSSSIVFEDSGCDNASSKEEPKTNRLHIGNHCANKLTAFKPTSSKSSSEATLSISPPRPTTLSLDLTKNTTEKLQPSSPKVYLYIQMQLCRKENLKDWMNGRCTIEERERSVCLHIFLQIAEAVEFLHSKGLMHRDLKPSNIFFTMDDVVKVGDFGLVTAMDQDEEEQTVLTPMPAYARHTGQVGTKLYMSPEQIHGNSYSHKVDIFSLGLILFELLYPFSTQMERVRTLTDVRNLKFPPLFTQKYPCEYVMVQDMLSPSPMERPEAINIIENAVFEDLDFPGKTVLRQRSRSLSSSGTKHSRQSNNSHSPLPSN
Chain of Neurotensin receptor type 1 (P30989 whole entry): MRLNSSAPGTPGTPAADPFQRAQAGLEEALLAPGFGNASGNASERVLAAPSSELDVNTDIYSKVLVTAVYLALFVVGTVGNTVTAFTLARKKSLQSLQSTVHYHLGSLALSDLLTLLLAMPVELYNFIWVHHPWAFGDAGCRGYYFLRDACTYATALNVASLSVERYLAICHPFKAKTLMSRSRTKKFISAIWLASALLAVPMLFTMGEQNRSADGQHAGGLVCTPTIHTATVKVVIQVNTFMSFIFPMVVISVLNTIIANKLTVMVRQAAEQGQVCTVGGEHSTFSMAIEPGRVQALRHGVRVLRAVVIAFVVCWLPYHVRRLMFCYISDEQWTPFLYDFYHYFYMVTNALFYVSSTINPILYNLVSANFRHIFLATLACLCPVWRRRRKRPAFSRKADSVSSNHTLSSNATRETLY
Chain of Neuropeptide Y receptor type 2 (P49146 whole entry): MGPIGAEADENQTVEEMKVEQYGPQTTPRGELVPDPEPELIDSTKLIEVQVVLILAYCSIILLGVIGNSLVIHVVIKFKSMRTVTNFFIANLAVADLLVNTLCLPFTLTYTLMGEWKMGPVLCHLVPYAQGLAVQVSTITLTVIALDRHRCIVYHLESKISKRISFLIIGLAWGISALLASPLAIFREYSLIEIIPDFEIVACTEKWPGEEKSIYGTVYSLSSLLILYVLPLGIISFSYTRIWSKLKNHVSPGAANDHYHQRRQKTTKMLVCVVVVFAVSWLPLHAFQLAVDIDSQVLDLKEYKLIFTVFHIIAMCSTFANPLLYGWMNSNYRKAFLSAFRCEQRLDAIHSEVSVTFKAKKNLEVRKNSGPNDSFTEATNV
Chain of Nonstructural protein 1 (Q194T2 whole entry): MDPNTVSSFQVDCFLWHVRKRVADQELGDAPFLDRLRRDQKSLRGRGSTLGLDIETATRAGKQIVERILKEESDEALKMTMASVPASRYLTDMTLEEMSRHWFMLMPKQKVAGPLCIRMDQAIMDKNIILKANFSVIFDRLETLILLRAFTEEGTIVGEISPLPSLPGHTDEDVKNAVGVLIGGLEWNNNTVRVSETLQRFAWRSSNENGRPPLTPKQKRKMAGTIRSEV
Chain of Sphingosine 1-phosphate receptor 3 (Q99500 whole entry): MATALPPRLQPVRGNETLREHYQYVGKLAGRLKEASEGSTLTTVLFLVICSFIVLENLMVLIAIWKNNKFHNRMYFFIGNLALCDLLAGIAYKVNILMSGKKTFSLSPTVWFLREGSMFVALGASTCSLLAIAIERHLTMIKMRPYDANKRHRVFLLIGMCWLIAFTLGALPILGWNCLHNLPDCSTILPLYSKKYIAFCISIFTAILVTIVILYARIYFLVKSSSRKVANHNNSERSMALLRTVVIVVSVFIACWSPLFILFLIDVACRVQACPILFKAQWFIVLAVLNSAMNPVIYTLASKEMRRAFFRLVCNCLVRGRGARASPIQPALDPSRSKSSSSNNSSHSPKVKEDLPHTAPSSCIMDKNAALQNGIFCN
Chain of Neuropeptide Y receptor type 1 (P25929 whole entry): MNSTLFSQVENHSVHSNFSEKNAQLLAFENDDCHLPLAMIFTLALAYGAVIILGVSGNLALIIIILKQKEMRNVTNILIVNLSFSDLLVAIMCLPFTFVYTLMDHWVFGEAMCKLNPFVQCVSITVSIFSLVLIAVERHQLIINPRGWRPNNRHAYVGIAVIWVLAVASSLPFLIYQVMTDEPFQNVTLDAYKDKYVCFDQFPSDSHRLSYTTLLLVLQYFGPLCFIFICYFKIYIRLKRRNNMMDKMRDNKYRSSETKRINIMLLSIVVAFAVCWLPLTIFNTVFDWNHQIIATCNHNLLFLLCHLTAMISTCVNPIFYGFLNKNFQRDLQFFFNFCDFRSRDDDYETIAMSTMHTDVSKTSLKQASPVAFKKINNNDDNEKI
Chain of X-box-binding protein 1 (P17861 whole entry): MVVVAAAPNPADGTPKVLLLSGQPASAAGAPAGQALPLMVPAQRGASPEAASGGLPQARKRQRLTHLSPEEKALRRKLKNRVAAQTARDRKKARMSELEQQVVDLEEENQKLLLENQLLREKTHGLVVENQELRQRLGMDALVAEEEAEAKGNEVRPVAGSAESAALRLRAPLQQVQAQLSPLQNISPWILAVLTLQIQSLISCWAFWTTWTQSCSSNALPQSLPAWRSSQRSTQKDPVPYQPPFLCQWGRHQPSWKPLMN
Chain of G-protein coupled receptor 55 (Q9Y2T6 whole entry): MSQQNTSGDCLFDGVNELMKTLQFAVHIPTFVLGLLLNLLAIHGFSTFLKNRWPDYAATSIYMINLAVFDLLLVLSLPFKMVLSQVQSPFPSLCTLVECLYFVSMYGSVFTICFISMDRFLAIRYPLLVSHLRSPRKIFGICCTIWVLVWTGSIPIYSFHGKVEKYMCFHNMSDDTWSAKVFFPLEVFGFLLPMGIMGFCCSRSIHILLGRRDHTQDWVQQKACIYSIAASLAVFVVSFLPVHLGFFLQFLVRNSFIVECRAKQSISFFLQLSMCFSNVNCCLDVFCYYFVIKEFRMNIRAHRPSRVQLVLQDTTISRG
Chain of Lytic switch protein BZLF1 (P03206 whole entry): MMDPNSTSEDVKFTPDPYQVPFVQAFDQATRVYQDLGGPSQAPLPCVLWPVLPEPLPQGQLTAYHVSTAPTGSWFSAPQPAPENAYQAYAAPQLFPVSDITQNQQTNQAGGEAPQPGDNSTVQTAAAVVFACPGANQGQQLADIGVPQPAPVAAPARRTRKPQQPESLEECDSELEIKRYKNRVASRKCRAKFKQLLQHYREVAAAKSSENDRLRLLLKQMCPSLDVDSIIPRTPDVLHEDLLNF
Chain of Epstein-Barr nuclear antigen 1 (P03211 whole entry): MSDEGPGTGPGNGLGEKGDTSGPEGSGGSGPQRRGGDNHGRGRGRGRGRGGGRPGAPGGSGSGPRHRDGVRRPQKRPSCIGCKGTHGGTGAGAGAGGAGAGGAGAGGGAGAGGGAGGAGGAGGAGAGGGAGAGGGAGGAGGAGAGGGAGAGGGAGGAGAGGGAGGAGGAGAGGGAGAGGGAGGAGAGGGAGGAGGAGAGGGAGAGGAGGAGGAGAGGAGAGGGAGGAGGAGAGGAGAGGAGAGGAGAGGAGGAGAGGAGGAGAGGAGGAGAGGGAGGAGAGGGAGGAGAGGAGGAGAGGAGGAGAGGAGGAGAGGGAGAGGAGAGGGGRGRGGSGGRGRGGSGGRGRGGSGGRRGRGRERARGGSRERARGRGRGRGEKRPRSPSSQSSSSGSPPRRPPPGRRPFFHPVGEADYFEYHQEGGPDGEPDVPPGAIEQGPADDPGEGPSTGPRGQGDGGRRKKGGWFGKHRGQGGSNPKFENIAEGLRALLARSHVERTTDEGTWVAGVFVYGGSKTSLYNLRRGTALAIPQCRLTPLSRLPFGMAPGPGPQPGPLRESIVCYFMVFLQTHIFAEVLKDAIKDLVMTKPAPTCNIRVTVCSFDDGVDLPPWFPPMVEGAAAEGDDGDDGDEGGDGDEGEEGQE

COc1ccc(-c2n[nH]c(SCC(=O)N(C3CCCCC3)C3CCCCC3)n2)cc1
EC50 [1]: > 10 µM (not active) | EC50 [2]: > 50 µM (not active) | EC50 [3]: > 50 µM (not active)

COc1ccc(NC(=O)COc2ccc3c(C)cc(=O)oc3c2)cc1S(=O)(=O)N1CCCCC1
IC50 [4]: 5.29 µM (active) | IC50 [5]: > 111 µM (not active)

COC(=O)c1ccc2c(c1)C(C)(C)C(/C=C/c1ccccc1O)=[N+]2C.[I-]
EC50 (HEK293 [6]): 7.83 µM (active) | CC50 (HeLa): 8.49 µM (active) | IC50 (HEK293 [7]): 5.74 µM (active) | IC50 (HEK293 [8]): > 20 µM (inactive) | IC50 (HEK293 [9]): 11.7 µM (inactive) | EC50 [10]: 0.584 µM (active) | EC50 [11]: 4.69 µM (active) | IC50 [12]: 0.798 µM (active) | IC50 [13]: 4.76 µM (active) | EC50 [14]: 2.75 µM (active) | EC50 [15]: 18.3 µM (active) | IC50 (Nonstructural protein 1): 22.7 µM (active) | Absolute IC50 (XBP1) (X-box-binding protein 1): 10 µM | CC50 (Vero): 4.79 µM (active) | CC50 (MDCK [16]): 5.8 µM (active) | IC50 (MDCK [17]): 8.58 µM (active) | CC50 [18]: 30.9 µM (active) | IC50 [19]: 21 µM (active)

COc1cc2cc(C(c3nnnn3C(C)(C)C)N3CCc4ccccc43)c(O)nc2cc1OC (stereo not drawn)
IC50 [20]: > 100 µM (active)

CCCCOc1ccc(C2=NNC(=O)CC2)cc1
IC50 [21]: 13.6 µM (not active) | IC50 [22]: 4.54 µM (active)

CCS(=O)(=O)N1CCC(C(=O)NCc2ccc(F)cc2)CC1
EC50 [23]: > 55.7 µM (not active) | EC50 [24]: > 55.7 µM (not active)
